Results as given in US5688769A, “Treatment method” (Uclaf; Roussel, priority 1979, dated 1997).

Key:
[1] = test system: testicular steroidogensis; experiment: Inhibitory activity against testicular steroidogenesis in men in good health, single intranasal dose; assay type: in vivo; conditions: human, single intranasal dose 500 μg
Method: The said product was administered intranasally at a dose of 500 μg in a few drops of distilled water at 8 A.M. on the third day of the test. For 2 days prior to the treatment and for 6 days after the treatment, samples of blood were taken daily at 8 A.M., 3 P.M. and 10 P.M. On the day of administration of the LH-RH agonist, blood samples were taken at 11 A.M. and 6 P.M.
The seric concentrations of LH and FSH were measured by radioimmuno-logic dosages with double antibodies and the antibodies for measuring LH and FSH were furnished by the National Pituitary Agency of N.I.H. in Bethesda, Md. The seric concentrations of steroids was measured by radioimmuno-logic dosages in which one ml of serum was extracted with ether and the steroids were separated on a LH-20 column before measuring with radioimmuno-logic dosages. The radioimmuno-logic dosage results were determined by a program derived from model II of Rodbard et al [Second Karolinska Symposium on Research Methods in Reproductive Endocrinology, Diezfalusky Editor, Copenhague (1970), p. 79-103]. The statistical significance was determined by the "multiple level test" of Duncan-Kramer [Kramer, Biometrics, Vol 12 (1956), p. 307]. The results are shown in the FIGS. 1A to 1H filed herewith.

[2] = test system: testicular steriodogenosis; experiment: Inhibitory activity on testicular steroidogenesis in a patient with prostate cancer; assay type: in vivo, human; conditions: intranasal 500 μg twice a day
Excerpt: The results are reported in the graphs of sheet 2 of the Figures.

ovarian steroidogenosis = experiment: Inhibitory activity on ovarian steroidogenesis in women; assay type: in vivo; conditions: for reduction of seric levels of progesterone as compared to the controls: typical subject (FIGS. 3A-3D)
Method: The inhibitory activity of D Ser (Tbu)^6 or Gly^10 LH-RH ethylamide on ovarian steroidogenosis in women was determined on 6 women aged 26 to 35 years with normal and regular menstrual cycles and without prior endocrinal or gynecological problems. […] […] Daily blood samples were taken between 4 and 6 P.M. to measure seric levels of LH, FSH, progesterone and estradiol which were determined by radioimmuno-logic tests with double antibodies. The antibodies to measure LH and FSH were furnished by the National Pituitory Agency of N.I.H. of Bethesda, Md.
Estradiol and progesterone were measured with highly specific antibodies developed against 7-(O-carboxymethyl)-oxime of estradiol and 12-(O-carboxymethyl)-oxime of progesterone, respectively [3H] 17β-estradiol and ^125 I-progesterone-12-[0-carboxymethyl)-oxime]used as tracers. The serum was extracted with benzene and the steroids were separated with a LH 20 column before the determination. The radioimmunological results were exploited by the program derived from model II of Rodbard and Lewald as in Example 1 and the statistical significance was measured by the multiple level test of Ducan-Kramer of Example 1. The results are shown in the graphs of sheets 1 to 16 of the Figures.

CCNC(=O)[C@@H]1CCCN1C(=O)[C@H](CCCNC(=N)N)NC(=O)[C@H](CC(C)C)NC(=O)[C@@H](COC(C)(C)C)NC(=O)[C@H](Cc1ccc(O)cc1)NC(=O)[C@H](CO)NC(=O)[C@H](Cc1c[nH]c2ccccc12)NC(=O)[C@H](Cc1c[nH]cn1)NC(=O)[C@@H]1CCC(=O)N1 [D Ser (Tbu)^6 of Gly^10 LH-RH ethylamide]
duration of the lessening of cyclicity and drop of seric levels of testicular steroids [1]: 3 days
androgenic steroids, plasmatic level [2]: diminution
level of testosterone ([2]; two weeks of treatment): stabilized at a very low level
level of seric progesterone, course (ovarian steroidogenosis; 2 cycles of treatment (FIGS. 4A-4F)): accelerated diminution
level of progesterone, % of control values (pretreatment cycles = 100%) (ovarian steroidogenosis; 12 cycles of post-treatment): 99%
level of progesterone, % of control values (pretreatment cycles = 100%) (ovarian steroidogenosis; 12 cycles of treatment): 46%
level of progesterone reduced as compared to the controls (ovarian steroidogenosis; all 12 treatment cycles (FIGS. 5A-5L), scale 13 to 127%): 46%
reduction of seric levels of progesterone as compared to the controls (ovarian steroidogenosis; first of the 2 cycles of treatment, intranasal 500 μg at 8 A.M. and 5 P.M. of one day): 13%
reduction of seric levels of progesterone as compared to the controls (ovarian steroidogenosis; second of the 2 cycles of treatment): 34%
